# Organism: Rattus norvegicus
# Test: Open TG-GATES - Regimen: Single
# Assay type: toxicity, organism-based, Sprague-Dawley
# Parameters: regimen Single, gender Male, age 6 weeks
# Settings: in vivo, po, route gavage; for Bas / Eos / Fbg / Hb / Lym / MCH / MCHC / MCV / Mono / Neu / RBC / Ret / WBC / APTT: tissue Blood; for KIDNEY_L / KIDNEY_R / KIDNEY_TOTAL: tissue Kidney; for LIVER: tissue Liver; for ALP / ALT / AST / CRE / Ca / Cl / DBIL / GLC / IP / K / LDH / Na / PL / RALB / TBIL / TC / TG / TP / gamma-GTP: tissue Plasma
# [1] = 75 mg/kg, 3 h, dose level Middle
# [2] = 75 mg/kg, 6 h, dose level Middle
# [3] = 75 mg/kg, 9 h, dose level Middle
# [4] = 75 mg/kg, 24 h, dose level Middle
# [5] = 250 mg/kg, 3 h, dose level High
# [6] = 250 mg/kg, 6 h, dose level High
# [7] = 250 mg/kg, 9 h, dose level High
# [8] = 250 mg/kg, 24 h, dose level High
smiles,measurement,setting,value
O=C1CN(/N=C/c2ccc(-c3ccc([N+](=O)[O-])cc3)o2)C(O)=N1 [DANTROLENE],Bas,[1],0%
same,Eos,[1],1%
same,Fbg,[1],217.6 mg/dL
same,Hb,[1],14.2 g/dL
same,Lym,[1],70.4%
same,MCH,[1],22.7 pg
same,MCHC,[1],34.1%
same,MCV,[1],66.7 fL
same,Mono,[1],8%
same,Neu,[1],20.6%
same,RBC,[1],623.6 x10_4/ul
same,Ret,[1],10.8%
same,WBC,[1],82.6 x10_2/uL
same,KIDNEY_L,[1],0.9 g
same,KIDNEY_R,[1],1 g
same,KIDNEY_TOTAL,[1],1.9 g
same,LIVER,[1],9.5 g
same,ALP,[1],747.2 IU/L
same,ALT,[1],32.4 IU/L
same,AST,[1],60.2 IU/L
same,CRE,[1],0.5 mg/dL
same,Ca,[1],10.3 mg/dL
same,Cl,[1],101.4 meq/L
same,DBIL,[1],0.06 mg/dL
same,GLC,[1],213.4 mg/dL
same,IP,[1],11.1 mg/dL
same,K,[1],4.7 meq/L
same,LDH,[1],105.8 IU/L
same,Na,[1],138 meq/L
same,PL,[1],148.2 mg/dL
same,RALB,[1],3.9 g/dL
same,TBIL,[1],0.3 mg/dL
same,TC,[1],85.4 mg/dL
same,TG,[1],41.4 mg/dL
same,TP,[1],5.7 g/dL
same,gamma-GTP,[1],1.8 IU/L
same,TERMINAL_BW,[2],191.2 g
same,APTT,[2],17 s
same,Bas,[2],0%
same,Eos,[2],1%
same,Fbg,[2],220.6 mg/dL
same,Hb,[2],14.6 g/dL
same,Lym,[2],73.2%
same,MCH,[2],22.4 pg
same,MCHC,[2],34.3%
same,MCV,[2],65.2 fL
same,Mono,[2],8.6%
same,Neu,[2],17.2%
same,RBC,[2],650.4 x10_4/ul
same,Ret,[2],12.7%
same,WBC,[2],82.9 x10_2/uL
same,KIDNEY_L,[2],0.9 g
same,KIDNEY_R,[2],0.9 g
same,KIDNEY_TOTAL,[2],1.9 g
same,LIVER,[2],9 g
same,ALP,[2],749.6 IU/L
same,ALT,[2],34 IU/L
same,AST,[2],64.2 IU/L
same,CRE,[2],0.5 mg/dL
same,Ca,[2],10.3 mg/dL
same,Cl,[2],102.8 meq/L
same,DBIL,[2],0.06 mg/dL
same,GLC,[2],211.4 mg/dL
same,IP,[2],9.6 mg/dL
same,K,[2],4.6 meq/L
same,LDH,[2],102 IU/L
same,Na,[2],138.8 meq/L
same,PL,[2],141.8 mg/dL
same,RALB,[2],3.8 g/dL
same,TBIL,[2],0.3 mg/dL
same,TC,[2],80.4 mg/dL
same,TG,[2],30.4 mg/dL
same,TP,[2],5.6 g/dL
same,gamma-GTP,[2],1.6 IU/L
same,TERMINAL_BW,[3],191.7 g
same,APTT,[3],16.9 s
same,Bas,[3],0%
same,Eos,[3],1%
same,Fbg,[3],217.8 mg/dL
same,Hb,[3],14.3 g/dL
same,Lym,[3],78.2%
same,MCH,[3],21.6 pg
same,MCHC,[3],32.9%
same,MCV,[3],65.6 fL
same,Mono,[3],7.4%
same,RBC,[3],663.8 x10_4/ul
same,Ret,[3],9.8%
same,WBC,[3],74.6 x10_2/uL
same,KIDNEY_L,[3],0.9 g
same,KIDNEY_R,[3],0.9 g
same,KIDNEY_TOTAL,[3],1.8 g
same,LIVER,[3],8.2 g
same,ALP,[3],710.6 IU/L
same,ALT,[3],23.2 IU/L
same,AST,[3],53 IU/L
same,CRE,[3],0.5 mg/dL
same,Ca,[3],10.4 mg/dL
same,Cl,[3],105.2 meq/L
same,DBIL,[3],0.054 mg/dL
same,GLC,[3],205.8 mg/dL
same,IP,[3],9.5 mg/dL
same,K,[3],5.2 meq/L
same,LDH,[3],103.2 IU/L
same,Na,[3],138.2 meq/L
same,PL,[3],148 mg/dL
same,RALB,[3],3.8 g/dL
same,TBIL,[3],0.4 mg/dL
same,TC,[3],87.4 mg/dL
same,TG,[3],26.4 mg/dL
same,TP,[3],5.5 g/dL
same,gamma-GTP,[3],1.6 IU/L
same,TERMINAL_BW,[4],190.1 g
same,APTT,[4],16.9 s
same,Bas,[4],0%
same,Eos,[4],0.8%
same,Fbg,[4],202.2 mg/dL
same,Hb,[4],13.8 g/dL
same,Lym,[4],86.2%
same,MCH,[4],21.9 pg
same,MCHC,[4],33.6%
same,MCV,[4],65.3 fL
same,Mono,[4],7.2%
same,Neu,[4],6.2%
same,RBC,[4],631 x10_4/ul
same,Ret,[4],11.5%
same,WBC,[4],86.1 x10_2/uL
same,KIDNEY_L,[4],0.9 g
same,KIDNEY_R,[4],0.9 g
same,KIDNEY_TOTAL,[4],1.9 g
same,LIVER,[4],9 g
same,ALP,[4],1061.6 IU/L
same,ALT,[4],32.8 IU/L
same,AST,[4],56.2 IU/L
same,CRE,[4],0.5 mg/dL
same,Ca,[4],10.9 mg/dL
same,Cl,[4],105 meq/L
same,DBIL,[4],0.018 mg/dL
same,GLC,[4],189 mg/dL
same,IP,[4],7.7 mg/dL
same,K,[4],4.3 meq/L
same,LDH,[4],104.6 IU/L
same,Na,[4],141.4 meq/L
same,PL,[4],147.8 mg/dL
same,RALB,[4],3.9 g/dL
same,TBIL,[4],0.4 mg/dL
same,TC,[4],83.6 mg/dL
same,TG,[4],73.2 mg/dL
same,TP,[4],5.7 g/dL
same,gamma-GTP,[4],1 IU/L
same,TERMINAL_BW,[5],193.5 g
same,APTT,[5],16.6 s
same,Bas,[5],0%
same,Eos,[5],1.4%
same,Fbg,[5],218.2 mg/dL
same,Hb,[5],14.5 g/dL
same,Lym,[5],76.6%
same,MCH,[5],22 pg
same,MCHC,[5],34.2%
same,MCV,[5],64.3 fL
same,Mono,[5],6.8%
same,Neu,[5],15%
same,RBC,[5],658 x10_4/ul
same,Ret,[5],11.7%
same,WBC,[5],67.2 x10_2/uL
same,KIDNEY_L,[5],0.9 g
same,KIDNEY_R,[5],0.9 g
same,KIDNEY_TOTAL,[5],1.9 g
same,LIVER,[5],9.3 g
same,ALP,[5],867.8 IU/L
same,ALT,[5],35.6 IU/L
same,AST,[5],68.8 IU/L
same,CRE,[5],0.5 mg/dL
same,Ca,[5],10.4 mg/dL
same,Cl,[5],100.6 meq/L
same,DBIL,[5],0.056 mg/dL
same,GLC,[5],223.4 mg/dL
same,IP,[5],10.3 mg/dL
same,K,[5],4.5 meq/L
same,LDH,[5],100.4 IU/L
same,Na,[5],138.4 meq/L
same,PL,[5],142 mg/dL
same,RALB,[5],3.9 g/dL
same,TBIL,[5],0.3 mg/dL
same,TC,[5],81 mg/dL
same,TG,[5],41.8 mg/dL
same,TP,[5],5.7 g/dL
same,gamma-GTP,[5],2.2 IU/L
same,TERMINAL_BW,[6],189.5 g
same,APTT,[6],17.8 s
same,Bas,[6],0%
same,Eos,[6],0.8%
same,Fbg,[6],212.2 mg/dL
same,Hb,[6],14.7 g/dL
same,Lym,[6],68.4%
same,MCH,[6],22.4 pg
same,MCHC,[6],34.4%
same,MCV,[6],65.2 fL
same,Mono,[6],6.2%
same,Neu,[6],24.6%
same,RBC,[6],656.8 x10_4/ul
same,Ret,[6],12.9%
same,WBC,[6],66.9 x10_2/uL
same,KIDNEY_L,[6],0.9 g
same,KIDNEY_R,[6],0.9 g
same,KIDNEY_TOTAL,[6],1.8 g
same,LIVER,[6],8.3 g
same,ALP,[6],725.6 IU/L
same,ALT,[6],29.6 IU/L
same,AST,[6],58.6 IU/L
same,CRE,[6],0.5 mg/dL
same,Ca,[6],10.3 mg/dL
same,Cl,[6],102.4 meq/L
same,DBIL,[6],0.086 mg/dL
same,GLC,[6],219.6 mg/dL
same,IP,[6],9 mg/dL
same,K,[6],4.4 meq/L
same,LDH,[6],110.6 IU/L
same,Na,[6],137.6 meq/L
same,PL,[6],133.4 mg/dL
same,RALB,[6],3.9 g/dL
same,TBIL,[6],0.3 mg/dL
same,TC,[6],79.2 mg/dL
same,TG,[6],19.2 mg/dL
same,TP,[6],5.6 g/dL
same,gamma-GTP,[6],1.2 IU/L
same,TERMINAL_BW,[7],185.8 g
same,APTT,[7],19.1 s
same,Bas,[7],0%
same,Eos,[7],0.2%
same,Fbg,[7],216.8 mg/dL
same,Hb,[7],14.5 g/dL
same,Lym,[7],77.8%
same,MCH,[7],21.6 pg
same,MCHC,[7],32.9%
same,MCV,[7],65.6 fL
same,Mono,[7],5.8%
same,Neu,[7],15.8%
same,RBC,[7],669.4 x10_4/ul
same,Ret,[7],12.3%
same,WBC,[7],55.5 x10_2/uL
same,KIDNEY_L,[7],0.9 g
same,KIDNEY_R,[7],0.9 g
same,KIDNEY_TOTAL,[7],1.8 g
same,LIVER,[7],8 g
same,ALP,[7],664.6 IU/L
same,ALT,[7],21.4 IU/L
same,AST,[7],50.4 IU/L
same,CRE,[7],0.6 mg/dL
same,Ca,[7],10.5 mg/dL
same,Cl,[7],103.6 meq/L
same,DBIL,[7],0.064 mg/dL
same,GLC,[7],212.2 mg/dL
same,IP,[7],8.9 mg/dL
same,K,[7],4.9 meq/L
same,LDH,[7],89.8 IU/L
same,Na,[7],136.8 meq/L
same,PL,[7],144.2 mg/dL
same,RALB,[7],3.8 g/dL
same,TBIL,[7],0.4 mg/dL
same,TC,[7],90.2 mg/dL
same,TG,[7],17.2 mg/dL
same,TP,[7],5.7 g/dL
same,gamma-GTP,[7],1.4 IU/L
same,TERMINAL_BW,[8],185 g
same,APTT,[8],17.5 s
same,Bas,[8],0%
same,Eos,[8],0.8%
same,Fbg,[8],207 mg/dL
same,Hb,[8],14.7 g/dL
same,Lym,[8],87.6%
same,MCH,[8],21.8 pg
same,MCHC,[8],33.4%
same,MCV,[8],65.3 fL
same,Mono,[8],5.8%
same,Neu,[8],5.8%
same,RBC,[8],675 x10_4/ul
same,Ret,[8],13%
same,WBC,[8],72.5 x10_2/uL
same,KIDNEY_L,[8],0.9 g
same,KIDNEY_R,[8],0.9 g
same,KIDNEY_TOTAL,[8],1.9 g
same,LIVER,[8],8.6 g
same,ALP,[8],722.6 IU/L
same,ALT,[8],24.6 IU/L
same,AST,[8],46.2 IU/L
same,CRE,[8],0.5 mg/dL
same,Ca,[8],11.1 mg/dL
same,Cl,[8],103.4 meq/L
same,DBIL,[8],0.022 mg/dL
same,GLC,[8],191.2 mg/dL
same,IP,[8],9.1 mg/dL
same,K,[8],4.8 meq/L
same,LDH,[8],102.8 IU/L
same,Na,[8],140.6 meq/L
same,PL,[8],136 mg/dL
same,RALB,[8],4 g/dL
same,TBIL,[8],0.3 mg/dL
same,TC,[8],79.6 mg/dL
same,TG,[8],21.8 mg/dL
same,TP,[8],5.7 g/dL
same,gamma-GTP,[8],1.6 IU/L

# Reference: ChEMBL document CHEMBL3885861, “Open TG-GATES”
